The results in this text go back to US20240299394A1, “TARGETED TREATMENT FOR SKIN FRAGILITY DISEASES” (University of Washington, priority 2023, published 2024).

Common to all, as to type: cell-based, human
In experiment [1] the test system is ERK. In words: Western blotting of pERK in NHEK lysates. Conditions: Dab 1 μM or Vem 10 μM alone, 24 hours in E-medium, vs DMSO. The method, then: (§1) NHEKs were seeded at a density of 1×10^6 cells per well of 6-well cell culture dishes in M154. Upon reaching confluence, M154 was replaced with E-medium containing vehicle control (DMSO) or inhibitors at the following concentrations: Dabrafenib (1 μM), vemurafenib (10 μM), trametinib (1 μM). After 24 hours, whole-cell lysates were generated by washing cells once in phosphate-buffered saline (PBS) followed by lysis in urea sample buffer [8 M Urea, 60 mM Tris, 1% SDS, 10% glycerol, 5% β-mercaptoethanol, 0.0005% pyronin-Y, pH 6.8] for 10 min. Lysates were homogenized using a microtip probe sonicator (Fisher Scientific).
(§2) Whole-cell lysates were loaded onto NuPAGE 12% Bis-Tris Gels (Thermo-Fisher Cat. #NP0343BOX) and separated by electrophoresis using NuPAGE MES SDS Running Buffer (Thermo-Fisher Cat. #NP0002). Proteins were transferred onto Immobilon-FL membrane (Millipore of Burlington, MA, Cat. #IPFL85R) in transfer buffer (25 mM Tris, 192 mM glycine, 20% (v/v) methanol) at 50 volts (V) for 60 minutes. Membranes were blocked in Intercept tris-buffered saline (TBS) blocking buffer (LI-COR) for 60 minutes at room temperature. Membranes were probed overnight at 4° C. with the primary antibodies diluted in Intercept TBS blocking buffer (LI-COR). […]

In experiment [2] the test system is ERK. In words: ERK biosensor (ERK-KTR-mClover) live imaging. The following applies: Dab or Vem alone, 24 h, 1.2 mM calcium. The method, then: For live imaging of the ERK biosensor, NHEKs were transduced with ERK-KTR-mClover (Addgene Cat. #59150). HEK293FT cells were grown in complete DMEM, then transfected with 4 μg pLenti-CMV-PuroDEST-ERK-KTR-mClover DNA plus 12 μl FuGENE 6 (Promega of Madison, WI, Cat. #E2691) in 800 μL of Opti-MEM (Thermo-Fisher Cat. #31985070), which was added to the cells and left overnight. Lentiviral supernatants were collected the next day and polybrene (Sigma Cat. #H9268) was added at a concentration of 4 μg/mL. M154 was removed from NHEKs and replaced with viral medium for 1 hour at 37° C. Cells were then washed in PBS and placed back in their normal medium and expanded in culture.
ERK-KTR-mClover-transduced cells were seeded into 35 mm glass-bottom dishes in low calcium medium (0.31 mM) and grown to confluency. […] Using Fiji (Fiji software, https://github.com/fiji/fiji), the nuclear region was encircled with the polygon tool and the “Measure” function was used to calculate the mean fluorescence intensity; after using the “Cut” function to remove the nuclear region, then remaining cytoplasmic region was encircled with the polygon tool and the “Measure” function was used to calculate the mean fluorescence intensity. The ERK activity index was calculated as the ratio of the cytoplasmic integrated fluorescence intensity (active) to the nuclear integrated fluorescence intensity.

Experiment [3] relates to NHEKs. In words: Immunoblot of cadherins and plakoglobin in NHEK lysates. Conditions: 24 hours in E-medium, vs DMSO. The method, then: as §1, §2
The subject of experiment [4] is NHEK monolayers. The experiment is described as follows: Monolayer mechanical dissociation assay, B-RAF inhibitor model of Grover disease. Conditions: Dabrafenib 1 μM or vemurafenib 10 μM alone, 24 h. The method, then: Dispase-based mechanical dissociation assays were carried out as described (70). Keratinocytes were plated at a density of 1×10^6 cells per well of 6-well cell culture dishes. Upon reaching confluence, the cells were switched into E-medium. Vehicle control (DMSO) or chemical inhibitors were added at the following concentrations: Dabrafenib (1 μM), vemurafenib (10 μM) trametinib (1 μM), U0126 (10 μM), or PD98059 (20 μM). After 24 h, monolayers were washed with PBS and then incubated with 500 μL dispase (5 U/ml) in Hank's balanced salt solution (Stemcell Technologies of Vancouver, Canada, Cat. #07913) for 30 minutes at 37° C. Next, 4.5 mL PBS was added to the wells and all liquid plus released monolayers were transferred into 15 mL conical tubes, which were placed together in a rack and inverted 1-10 times to induce mechanical stress. Monolayer fragments were transferred back into 6-well cell culture plates and imaged with a 12-megapixel digital camera. Fragments were counted in Fiji.

Regarding `CC(C)(C)c1nc(-c2cccc(NS(=O)(=O)c3c(F)cccc3F)c2F)c(-c2ccnc(N)n2)s1` [dabrafenib], the “pERK by Western blotting” value in experiment [1] is recorded as “sufficient to increase the active phosphorylated form of ERK (pERK)”. In experiment [2], the “ERK activity (biosensor)” value is given as “induced ERK activation”. Also, in experiment [3], the “protein levels of classical cadherins, desmosomal cadherins (DSG1, DSG2, DSG3) and plakoglobin” value is given as “did not appreciably alter”. The figures for the “number of fragments upon mechanical stress” value in experiment [4] and in experiment [4] (listed as Dab) were “an increase in the number of fragments” and “readily fragmented”, respectively.
